Legend:
Experiment in all cases: Large panel kinase profiling
Type in all cases: biochemical
Conditions in all cases: 1 μM test article, 1 mM ATP
MAPKAPK2/MK2 = molecular target: T1, MAPKAPK2/MK2 (Homo sapiens, UniProt P49137)
T1 construct: AssayQuant Technologies, Inc. (service provider)
Summary of the method: (§1)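 Single-point profiling at 1 μM test article used 1 mM ATP. Phosphorylation was tracked by sensor fluorescence increase over time at 30° C., with readings each minute at excitation 360 nm and emission 485 nm.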

TBK1 = molecular target: T2, TBK1 (Homo sapiens, UniProt Q9UHD2)
T2 construct: AssayQuant Technologies, Inc. (contract laboratory that ran the panel)
T2 sequence (Q9UHD2 1-729): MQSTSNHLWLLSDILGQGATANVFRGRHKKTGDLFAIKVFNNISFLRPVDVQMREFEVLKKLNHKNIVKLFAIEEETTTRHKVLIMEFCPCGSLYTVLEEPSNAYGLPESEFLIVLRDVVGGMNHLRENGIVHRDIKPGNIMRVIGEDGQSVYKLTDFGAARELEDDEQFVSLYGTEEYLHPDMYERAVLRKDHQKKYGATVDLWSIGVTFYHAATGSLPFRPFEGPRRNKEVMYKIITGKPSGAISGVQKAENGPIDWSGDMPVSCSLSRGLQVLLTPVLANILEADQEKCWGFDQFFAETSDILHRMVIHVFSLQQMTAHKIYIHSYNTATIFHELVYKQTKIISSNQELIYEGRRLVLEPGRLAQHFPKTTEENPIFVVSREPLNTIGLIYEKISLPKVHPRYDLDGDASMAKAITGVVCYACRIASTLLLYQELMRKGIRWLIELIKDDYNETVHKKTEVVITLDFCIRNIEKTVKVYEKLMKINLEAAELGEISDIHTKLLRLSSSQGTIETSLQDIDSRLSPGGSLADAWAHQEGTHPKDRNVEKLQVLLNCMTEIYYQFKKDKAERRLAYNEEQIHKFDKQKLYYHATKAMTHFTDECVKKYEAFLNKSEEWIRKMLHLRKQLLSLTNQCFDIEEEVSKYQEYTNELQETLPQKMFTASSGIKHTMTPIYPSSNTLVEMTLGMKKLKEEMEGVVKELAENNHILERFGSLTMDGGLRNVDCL
Summary of the method: as §1

MAPK12/P38G = molecular target: T3, MAPK12/P38G (Homo sapiens, UniProt P53778)
T3 construct: AssayQuant Technologies, Inc. (service provider)
T3 sequence (P53778 1-367): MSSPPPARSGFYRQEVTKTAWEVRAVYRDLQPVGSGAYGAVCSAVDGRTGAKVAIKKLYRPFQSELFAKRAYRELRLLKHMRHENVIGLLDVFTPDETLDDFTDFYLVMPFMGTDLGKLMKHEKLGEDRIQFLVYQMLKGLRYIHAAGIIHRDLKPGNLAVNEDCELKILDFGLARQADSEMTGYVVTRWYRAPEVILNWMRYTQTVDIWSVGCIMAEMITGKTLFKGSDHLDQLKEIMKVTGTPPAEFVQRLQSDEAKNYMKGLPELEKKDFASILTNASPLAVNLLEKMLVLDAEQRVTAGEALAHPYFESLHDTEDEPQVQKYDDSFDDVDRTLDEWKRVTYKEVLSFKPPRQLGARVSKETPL
Summary of the method: as §1

PRKCZ/PKCZ = molecular target: T4, PRKCZ/PKCZ (Homo sapiens, UniProt Q05513)
T4 sequence (Q05513 1-592): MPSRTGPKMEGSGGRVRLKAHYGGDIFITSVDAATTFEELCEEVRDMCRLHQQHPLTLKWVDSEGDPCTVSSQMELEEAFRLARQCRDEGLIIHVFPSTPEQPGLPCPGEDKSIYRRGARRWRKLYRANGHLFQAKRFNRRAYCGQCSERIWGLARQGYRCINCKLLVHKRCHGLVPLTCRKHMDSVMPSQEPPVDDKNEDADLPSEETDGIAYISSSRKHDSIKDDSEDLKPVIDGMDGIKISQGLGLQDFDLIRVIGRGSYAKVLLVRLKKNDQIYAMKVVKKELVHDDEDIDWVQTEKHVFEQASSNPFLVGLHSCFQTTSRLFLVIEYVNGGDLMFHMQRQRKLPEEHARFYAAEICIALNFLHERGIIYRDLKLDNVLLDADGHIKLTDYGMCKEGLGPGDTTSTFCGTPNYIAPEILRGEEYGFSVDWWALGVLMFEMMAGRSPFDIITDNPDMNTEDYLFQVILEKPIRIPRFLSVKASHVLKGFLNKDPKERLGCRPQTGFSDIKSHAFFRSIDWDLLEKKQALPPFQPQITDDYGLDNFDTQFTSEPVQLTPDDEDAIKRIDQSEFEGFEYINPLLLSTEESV
Summary of the method: as §1

IRAK1 = IRAK1 (Homo sapiens, UniProt P51617)
Chain of IRAK1 (P51617 whole entry, species assumed): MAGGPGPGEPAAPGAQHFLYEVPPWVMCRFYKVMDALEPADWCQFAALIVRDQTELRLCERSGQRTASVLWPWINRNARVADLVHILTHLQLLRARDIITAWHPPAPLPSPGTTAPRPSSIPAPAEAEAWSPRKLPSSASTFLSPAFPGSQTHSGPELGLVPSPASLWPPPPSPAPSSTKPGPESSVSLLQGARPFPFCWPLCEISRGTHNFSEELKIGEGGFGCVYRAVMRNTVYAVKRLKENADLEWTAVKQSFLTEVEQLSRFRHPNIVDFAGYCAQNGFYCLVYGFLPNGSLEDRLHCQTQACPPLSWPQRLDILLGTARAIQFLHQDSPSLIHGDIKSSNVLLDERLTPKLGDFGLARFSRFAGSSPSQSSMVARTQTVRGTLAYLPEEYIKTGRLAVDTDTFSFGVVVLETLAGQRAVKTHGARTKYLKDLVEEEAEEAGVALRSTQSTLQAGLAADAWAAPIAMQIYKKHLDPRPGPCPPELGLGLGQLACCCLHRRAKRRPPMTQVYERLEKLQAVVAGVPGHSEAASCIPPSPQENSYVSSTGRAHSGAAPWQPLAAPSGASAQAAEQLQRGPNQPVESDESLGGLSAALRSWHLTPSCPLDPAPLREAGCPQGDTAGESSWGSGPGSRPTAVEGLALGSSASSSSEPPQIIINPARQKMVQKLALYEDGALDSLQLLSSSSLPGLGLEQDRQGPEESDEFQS
Summary of the method: as §1

BLK = BLK (Homo sapiens, UniProt P51451)
Chain of BLK (P51451 whole entry): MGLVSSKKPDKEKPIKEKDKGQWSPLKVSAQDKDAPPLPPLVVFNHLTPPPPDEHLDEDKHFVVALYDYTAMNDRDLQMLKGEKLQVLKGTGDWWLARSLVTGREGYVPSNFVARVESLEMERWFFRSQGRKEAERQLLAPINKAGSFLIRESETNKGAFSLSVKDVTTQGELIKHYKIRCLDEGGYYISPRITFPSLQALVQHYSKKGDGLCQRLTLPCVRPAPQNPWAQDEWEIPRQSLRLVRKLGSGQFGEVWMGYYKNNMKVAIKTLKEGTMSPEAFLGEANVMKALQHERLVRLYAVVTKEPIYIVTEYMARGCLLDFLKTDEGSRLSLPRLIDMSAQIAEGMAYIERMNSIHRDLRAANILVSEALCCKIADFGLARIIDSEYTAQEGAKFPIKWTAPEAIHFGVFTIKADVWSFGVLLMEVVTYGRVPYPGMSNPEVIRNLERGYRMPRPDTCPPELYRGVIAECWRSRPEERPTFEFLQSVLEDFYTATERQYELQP
Summary of the method: as §1

DYRK1A = molecular target: T5, DYRK1A (Homo sapiens, UniProt Q13627)
T5 construct: AssayQuant Technologies, Inc. (service laboratory)
Summary of the method: as §1

IRAK4 = molecular target: T6, IRAK4 (Homo sapiens, UniProt Q9NWZ3)
T6 sequence (Q9NWZ3 1-460): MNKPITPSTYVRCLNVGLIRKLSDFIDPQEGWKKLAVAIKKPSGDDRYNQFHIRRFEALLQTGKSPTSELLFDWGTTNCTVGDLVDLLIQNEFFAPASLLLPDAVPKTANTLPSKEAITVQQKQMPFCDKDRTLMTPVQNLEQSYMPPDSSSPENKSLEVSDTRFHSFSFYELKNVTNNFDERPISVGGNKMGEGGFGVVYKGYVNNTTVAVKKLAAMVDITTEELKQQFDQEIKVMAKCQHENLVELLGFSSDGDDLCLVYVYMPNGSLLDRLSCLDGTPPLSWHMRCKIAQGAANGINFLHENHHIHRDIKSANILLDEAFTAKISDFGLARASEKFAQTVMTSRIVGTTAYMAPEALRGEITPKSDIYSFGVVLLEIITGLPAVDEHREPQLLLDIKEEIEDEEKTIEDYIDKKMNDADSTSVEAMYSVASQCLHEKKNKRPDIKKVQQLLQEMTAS
Summary of the method: as §1

T1 sequence (P49137 whole entry): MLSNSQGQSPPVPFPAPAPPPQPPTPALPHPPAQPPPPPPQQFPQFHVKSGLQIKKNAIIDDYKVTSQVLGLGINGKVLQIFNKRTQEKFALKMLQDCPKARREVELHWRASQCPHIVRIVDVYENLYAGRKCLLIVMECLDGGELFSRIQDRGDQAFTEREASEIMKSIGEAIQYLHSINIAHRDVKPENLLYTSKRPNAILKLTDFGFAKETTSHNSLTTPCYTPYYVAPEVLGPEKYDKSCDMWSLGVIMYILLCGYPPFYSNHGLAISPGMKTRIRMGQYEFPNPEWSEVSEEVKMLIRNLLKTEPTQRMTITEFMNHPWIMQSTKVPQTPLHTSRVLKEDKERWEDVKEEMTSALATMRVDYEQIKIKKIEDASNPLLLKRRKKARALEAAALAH

Work on `C=CC(=O)N1CCCC(c2c(F)cc(C(N)=O)c3[nH]c4c(c23)CCCCC4)C1` (single isomer, unassigned) [Compound 5-6] yielded an inhibition at 1 µM (MAPKAPK2/MK2) of -5.9%, an inhibition at 1 µM (TBK1) of 10.9% and an inhibition at 1 µM (MAPK12/P38G) of -1.9%. The inhibition at 1 µM (PRKCZ/PKCZ) was -4%, the inhibition at 1 µM (IRAK1) was -28.6% and the inhibition at 1 µM (BLK) was 30.3%. The inhibition at 1 µM (DYRK1A) was 20.4% and the inhibition at 1 µM (IRAK4) was -4.7%.

Work on `C=CC(=O)N1CCC[C@@H](c2c(F)cc(C(N)=O)c3[nH]c4c(c23)CC2(CC4)CC2)C1` [Compound 6-2, (S)-5-(1-acryloylpiperidin-3-yl)-6-fluoro-1,2,4,9-tetrahydrospiro[carbazole-3,1′-cyclopropane]-8-carboxamide] yielded an inhibition at 1 µM (MAPKAPK2/MK2) of 24.1%, an inhibition at 1 µM (TBK1) of -34.6% and an inhibition at 1 µM (MAPK12/P38G) of 31.3%. The inhibition at 1 µM (PRKCZ/PKCZ) was 8.5%, the inhibition at 1 µM (IRAK1) was 5.6% and the inhibition at 1 µM (BLK) was 65.7%. For the same compound, the inhibition at 1 µM (DYRK1A) was -2.2% and the inhibition at 1 µM (IRAK4) was 4.1%.

In the case of `C=CC(=O)N1CCC[C@@H](c2c(F)cc(C(N)=O)c3[nH]c4c(c23)CCC4)C1` [Compound 10-2, (S)-8-(1-acryloylpiperidin-3-yl)-7-fluoro-1,2,3,4-tetrahydrocyclo-penta[b]indole-5-carboxamide], the inhibition at 1 µM (MAPKAPK2/MK2) is reported as -7.1%, the inhibition at 1 µM (TBK1) is reported as -31.3% and the inhibition at 1 µM (MAPK12/P38G) is reported as 4.2%. It also gave an inhibition at 1 µM (PRKCZ/PKCZ) of -4.2%, an inhibition at 1 µM (IRAK1) of 7.8% and an inhibition at 1 µM (BLK) of -2.3%. For the same compound, the inhibition at 1 µM (DYRK1A) was 7.2% and the inhibition at 1 µM (IRAK4) was -9.2%.

Reference: patent US20220009920A1 (GB005, Inc., priority 2020, published 2022)
